Assay results from publication PMC8043168, “Tribolium castaneum defensin 1 kills Moraxella catarrhalisin an in vitro infection model but does not harm commensal bacteria” (Virulence, 2021).
Values after ≈ are worked out from the molar mass of the structure shown. Ends that are not written are not given here.

system: M. catarrhalis; type: cell-based, Moraxella catarrhalis; details: 12 h
Description: Colonies of M. catarrhalis were grown on sheep blood agar plates for 12 h at 37°C and 5% CO2 before transfer to brain heart infusion (BHI) medium (Carl Roth, Karlsruhe, Germany) at an initial concentration of 1.6 × 10^7 cells/ml (OD600 = 0.08) as determined using an Ultraspec 10 cell densitometer (Amersham BioSciences, Little Chalfont, UK). Bacteria were cultivated in a shaking incubator at 37°C until the concentration reached 1.2 × 10^8 cells/ml (OD600 = 0.6) and then diluted to 2 × 10^6 cells/ml (OD600 = 0.011). To establish the optimal concentration ranges for AMP activity, defensin 1 was prepared as a two-fold dilution series from 12.5 µM to 1.56 µM and was added to the bacterial cultures, which were incubated as above for a further 16 h. Untreated cultures were used as controls. The OD600 was measured automatically at 30-min intervals using an Infinite M200 Pro plate reader (Tecan Life Sciences, Männedorf, Switzerland). […] They were cultivated for a further 15 h at 37°C and 5% CO2 in serial dilution before manual counting of the colonies on each plate.
Table S1. Detailed characterization of tested AMPs. M.c. were grown to an Optical Density (OD) 600nm of 0.6 in Brain Heart Infusion (BHI) Medium.
Upon dilution to OD600nm= 0.01, M.c. were incubated with declining amounts of indicated AMPs (25 μM to 0.048 μM at halving intervals) at 37°C with 5% CO2.
OD600nm was measured at 30 min intervals to establish the minimal inhibitory concentration (MIC). pI = isoelectric point, MW = molecular weight in kiloDalton.
MIC AMP name AMP class Organism Amino Acid Sequence pIMWPurity Retention time [min] modification
0.195 µM Cecropin A α-helical Hyalophora cecropia […] 10.75 4.00 91.06 7.30 n-term. amidation
0.39 µM Sarcotoxin IA α-helical Sarcophaga peregrina […] 11.07 4.16 91.37 9.37 n-term. amidation
~ 25µM Stomoxyn α-helical Stomoxys calcitrans […] 11.26 4.40 95.34 10.08 n-term. amidation
~ 25µM Spinigerin linear Pseudacanthotermes spiniger […] 11.07 3.00 96.23 12.45 none
>25µM Apidaecin Ia proline-rich Apis mellifera GNNRPVYIPQPRPPHPRI 11.71 2.11 92.98 16.91 none
>25µM Drosocin proline-rich Drosophila melanogaster GKPRPYSPRPTSHPRPIRV 12.01 2.20 92.86 11.65 none
>25µM Pyrrhocoricin proline-rich Pyrrhocoris apterus […] 10.27 2.34 93.17 11.38 none
>25 µM Metalnikowin-1 proline-rich Palomena prasina […] 9.98 1.84 92.85 13.36 none
>25 µM Metalnikowin-2A proline-rich Palomena prasina […] 9.98 1.84 92.39 10.85 none
>25 µM Metchnikowin-1 proline-rich Drosophila melanogaster […] 10.74 3.03 99.06 11.50 none
>25 µM Metchnikowin-2 proline-rich Drolophila melanogaster […] 11.54 3.04 97.16 11.46 none
12.5 µM Defensin 1 disulfide stabilized Tribolium castaneum […] 9.7 4.83 90.53 18.41 none
~ 25 µM Cecropin-like α-helical Lucilia sericata[…] 10.35 6.66 90.28 12.01 none
0.195 µM Cecropin α-helical Galleria mellonella […] 10.21 4.21 93.61 12.33 n-term. amidation
0.37 µM Cecropin α-helical Lucilia sericata […] 10.56 4.26 94.31 10.83 n-term. amidation
12.5 µM Stomoxyn α-helical Lucilia sericata […] 10.73 4.38 90.37 13.35n-term. amidation n-term.
1.56 µM Cecropin(Sarcotoxin) α-helical Eristalis tenax […] 10.56 4.14 90.80 9.76 none

Molecule | MIC (minimal inhibitory concentration)
DLRFLYPRGKLPVPTPPPFNPKPIYIDMGNRY [Lebocin-1] | > 25 µM
FVPYNPPRPGQSKPFPSFPGHGPFNPKIQWPYPLPNPGH [Abaecin] | > 25 µM
GFRKRFNKLVKKVKHTIKETANVSKDVAIVAGSGVAVGAAMG-NH2 [Stomoxyn (Lucilia sericata)] | 12.5 µM
GGLKKLGKKLEGAGKRVFNAAEKALPVVAGAKALRK [Cecropin A (Aedes aegypti)] | 1.56 µM
GKPRPYSPRPTSHPRPIRV [Drosocin] | > 25 µM
GNNRPVYIPQPRPPHPRI [Apidaecin Ia] | > 25 µM
GRPNPVNNKPTPHPRL [Formaecin-1] | > 25 µM
HRHQGPIFDTRPSPFNPNQPRPGPIY [Metchnikowin-1] | > 25 µM
HRRQGPIFDTRPSPFNPNQPRPGPIY [Metchnikowin-2] | > 25 µM
HVDKKVADKVLLLKQLRIMRLLTRL [Spinigerin] | ~ 25 µM
KWKIFKKIEKAGRNIRDGIIKAGPAVSVVGEAATIYKTG-NH2 [Cecropin (Galleria mellonella)] | 0.195 µM
KWKLFKKIEKVGQNIRDGIIKAGPAVAVVGQATQIAK-NH2 [Cecropin A (Hyalophora cecropia)] | 0.195 µM
VDKPDYRPRPRPPNM [Metalnikowin-1] | > 25 µM
VDKPDYRPRPWPRPN [Metalnikowin-2A] | > 25 µM

same assay, conditions: M. catarrhalis grown to OD600 0.6 in BHI, diluted to OD600 0.01; AMP 25 µM to 0.048 µM at halving intervals; 37°C, 5% CO2; OD600 every 30 min

Molecule | MIC (minimal inhibitory concentration)
CC[C@H](C)[C@H](NC(=O)CNC(=O)[C@H](CC(C)C)NC(=O)CNC(=O)[C@H](CCC(N)=O)NC(=O)[C@@H](NC(=O)[C@@H](NC(=O)[C@H](C)NC(=O)[C@H](CC(=O)O)NC(=O)[C@H](CCCNC(=N)N)NC(=O)[C@@H](NC(=O)[C@H](Cc1c[nH]cn1)NC(=O)[C@H](CCC(N)=O)NC(=O)CNC(=O)[C@@H](NC(=O)[C@H](CCCNC(=N)N)NC(=O)[C@H](CCC(=O)O)NC(=O)[C@@H](NC(=O)[C@H](CCCCN)NC(=O)[C@H](CCCCN)NC(=O)CNC(=O)[C@@H](NC(=O)[C@H](CCCCN)NC(=O)[C@H](CCCCN)NC(=O)[C@H](CC(C)C)NC(=O)[C@H](Cc1c[nH]c2ccccc12)NC(=O)CN)[C@@H](C)CC)[C@@H](C)CC)C(C)C)[C@@H](C)O)[C@@H](C)O)[C@@H](C)CC)C(=O)N[C@@H](C)C(=O)N[C@@H](CCC(N)=O)C(=O)N[C@@H](CCC(N)=O)C(=O)N[C@@H](C)C(=O)N[C@@H](C)C(=O)N[C@@H](CC(N)=O)C(=O)N[C@H](C(=O)N[C@@H](C)C(=O)N[C@@H](C)C(=O)N[C@H](C(=O)N[C@@H](C)C(=O)N[C@@H](CCCNC(=N)N)C(N)=O)[C@@H](C)O)C(C)C [Sarcotoxin IA] | 0.39 µM (≈ 1.62 µg/mL)
GFLKKIGKKLEGAVQRTRDATIQTIAVAQAAANVAATAKQ [Cecropin(Sarcotoxin)] | 1.56 µM
GWLKKIGKKIERVGQHTRDATIQTIGVAQQAANVAATLKG-NH2 [Sarcotoxin 1 C] | 0.37 µM
RGFRKHFNKLVKKVKHTISETAHVAKDTAVIAGSGAAVVAAT-NH2 [Stomoxyn (Stomoxys calcitrans)] | ~ 25 µM
SIGSAFKKALPVAKKIGKAALPIAKAALP [Ceratotoxin] | > 25 µM
VDKGSYLPRPTPPRPIYNRN [Pyrrhocoricin] | > 25 µM

system: not given; details: cited from earlier work
Excerpt: We furthermore tested the effect of defensin 1 and sarcotoxin 1 C on the commensals E. faecalis and E. coli. Selectivity of AMPs may provide an important therapeutic advantage over broad-spectrum antibiotics because AMPs targeting pathogens but not commensals would avoid the common side effects of antibiotic therapy. […] Sarcotoxin 1 C was previously shown to inhibit 90% of clinical multidrug-resistant isolates of Ent ...

Molecule | broad-panel off-target profile | cytotoxicity | in vitro therapeutic index
GWLKKIGKKIERVGQHTRDATIQTIGVAQQAANVAATLKG-NH2 [Sarcotoxin 1 C] | inconspicuous | no cytotoxicity | good

system: mice; details: dose of 10 mg/kg; cited from earlier work

Molecule | acute toxicity in mice
GWLKKIGKKIERVGQHTRDATIQTIGVAQQAANVAATLKG-NH2 [Sarcotoxin 1 C] | no acute toxicity

system: not given; details: cited from earlier work; remark: another data set of the same source

Molecule | cardiotoxicity
GWLKKIGKKIERVGQHTRDATIQTIGVAQQAANVAATLKG-NH2 [Sarcotoxin 1 C] | no cytotoxicity or cardiotoxicity
